Reference: ChEMBL document CHEMBL5726093, “Piperidine derivatives” (2019)

Target: Cathepsin S (Homo sapiens, UniProt P25774)
Assay: Cathepsin Enzyme Inhibition Assay: Enzyme activity is measured by observing the increase in fluorescence intensity caused by cleavage of a peptide substrate containing a fluorophore whose emission is quenched in the intact peptide.Assay buffer: 100 mM potassium phosphate pH 6.5, EDTA-Na 5 mM, Triton X-100 0.001%, DTT 5 mM.Enzymes (all at 1 nM): human and mouse Cathepsin S, Cat K, Cat B, Cat L.Substrate (20 Z-Val-Val-Arg-AMC, except for Cat K which uses Z-Leu-Arg-AMC (both from Bachem).Z=Benzyloxycarbonyl.AMC=7-Amino-4-Methyl-Coumarin.DTT=dithiothreitol.Final volume: 100 μL.Excitation 360 nm, Emission 465 nm.Enzyme is added to the substance dilutions in 96-well microtitre plates and the reaction is started with substrate. Fluorescence emission is measured over 20 minutes, during which time a linear increase is observed in the absence of inhibitor.

Sequence of Cathepsin S (P25774 whole entry): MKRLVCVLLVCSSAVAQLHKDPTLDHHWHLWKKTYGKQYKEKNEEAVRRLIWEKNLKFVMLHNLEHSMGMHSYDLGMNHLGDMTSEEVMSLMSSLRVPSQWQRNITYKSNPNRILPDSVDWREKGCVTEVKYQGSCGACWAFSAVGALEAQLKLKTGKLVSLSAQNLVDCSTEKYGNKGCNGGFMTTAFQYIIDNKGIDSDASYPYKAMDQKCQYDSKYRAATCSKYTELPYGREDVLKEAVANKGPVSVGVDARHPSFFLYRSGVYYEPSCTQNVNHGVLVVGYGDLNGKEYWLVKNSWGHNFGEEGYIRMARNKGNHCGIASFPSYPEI

## Cn1c(=O)n(C2CCN(Cc3nc(-c4ccc(C(F)(F)F)cc4)[nH]c3-c3ccccc3)CC2)c2ccccc21
  IC50: 985 nM
